Test results from article PMC6738096 (British Journal of Cancer, 2019).
Read-outs that look alike come from different tables or passages of the source.

Columns and labels:
calcium channel = experiment: Functional patch-clamp test, calcium channel inhibition; format: cell-based
[1] = Telemetered dog cardiovascular study; format: in vivo
Description: Potential in vivo effects on the respiratory, central nervous and cardiovascular systems were evaluated in oral dose studies in rats and dogs.

ALK-positive tumours = experiment: Phase 1 trial: clinical activity, tumour response by RECIST 1.1; format: in vivo, human; settings: for Best overall response: Complete response / Best overall response: Progressive disease / Best overall response: Stable disease / Objective response: Complete response + partial response / Best overall response: Partial response: ALK-positive NSCLC, 40 mg every 8 hours; for Best overall response: Partial response: confirmed and unconfirmed
Description: The overall tumour response in all patients with measurable disease was evaluated, using Response Evaluation Criteria in Solid Tumors, version 1.1,[16] completed at times of radiologic assessment at weeks 4 and 8 after dosing and every 8 weeks thereafter. For patients without measurable disease at study entry, radiologic assessment was done as per investigator discretion.
While tumour response data were collected from 66 patients, here, we present response data only for patients with ALK-positive tumour samples (n = 22) receiving the RP2D (40 mg Q8h).

CYP3A4 = CYP3A4 (Homo sapiens, UniProt P08684); experiment: biochemical
[2] = Plasma exposure in mice of the Karpas-299 study
hERG [3] = biological target: T1, hERG (Homo sapiens, UniProt Q12809); experiment: hERG in vitro test, displacement of dofetilide binding
hERG [4] = biological target: T1, hERG; experiment: hERG channel functional assay; format: biochemical; settings: read-out: IC50, inhibition of the hERG channel, functional assay
CYP2D6 = CYP2D6 (Homo sapiens, UniProt P10635); experiment: biochemical
[5] = Description: During the phase 1 trial, all patients were monitored by ECGs as part of safety evaluations. […] Cardiac function (QT, Bazett-corrected QT formula, Fridericia-corrected QT formula [QTcF], PR, QRS, RR and heart rate) was evaluated by a 12-lead ECG with triplicate readouts at scheduled time points, along with changes from baseline to each scheduled time point.
All the ΔQTcF data with matching drug concentration values were used for the analysis.

hNav1.5 = biological target: T2, hNav1.5 (Homo sapiens, UniProt Q14524); experiment: hNav1.5 expressed in HEK-293 cells; format: cell-based; settings: read-out: IC50 against hNav1.5
T2 construct: expressed in transfected cells; host or cells: HEK-293

[6] = Prior ALK inhibitor-treated (n = 8)
[7] = ALK-positive patients (n = 22), 40 mg Q8h
[8] = previously treated with an ALK inhibitor, RP2D

T1 sequence (Q12809 whole entry): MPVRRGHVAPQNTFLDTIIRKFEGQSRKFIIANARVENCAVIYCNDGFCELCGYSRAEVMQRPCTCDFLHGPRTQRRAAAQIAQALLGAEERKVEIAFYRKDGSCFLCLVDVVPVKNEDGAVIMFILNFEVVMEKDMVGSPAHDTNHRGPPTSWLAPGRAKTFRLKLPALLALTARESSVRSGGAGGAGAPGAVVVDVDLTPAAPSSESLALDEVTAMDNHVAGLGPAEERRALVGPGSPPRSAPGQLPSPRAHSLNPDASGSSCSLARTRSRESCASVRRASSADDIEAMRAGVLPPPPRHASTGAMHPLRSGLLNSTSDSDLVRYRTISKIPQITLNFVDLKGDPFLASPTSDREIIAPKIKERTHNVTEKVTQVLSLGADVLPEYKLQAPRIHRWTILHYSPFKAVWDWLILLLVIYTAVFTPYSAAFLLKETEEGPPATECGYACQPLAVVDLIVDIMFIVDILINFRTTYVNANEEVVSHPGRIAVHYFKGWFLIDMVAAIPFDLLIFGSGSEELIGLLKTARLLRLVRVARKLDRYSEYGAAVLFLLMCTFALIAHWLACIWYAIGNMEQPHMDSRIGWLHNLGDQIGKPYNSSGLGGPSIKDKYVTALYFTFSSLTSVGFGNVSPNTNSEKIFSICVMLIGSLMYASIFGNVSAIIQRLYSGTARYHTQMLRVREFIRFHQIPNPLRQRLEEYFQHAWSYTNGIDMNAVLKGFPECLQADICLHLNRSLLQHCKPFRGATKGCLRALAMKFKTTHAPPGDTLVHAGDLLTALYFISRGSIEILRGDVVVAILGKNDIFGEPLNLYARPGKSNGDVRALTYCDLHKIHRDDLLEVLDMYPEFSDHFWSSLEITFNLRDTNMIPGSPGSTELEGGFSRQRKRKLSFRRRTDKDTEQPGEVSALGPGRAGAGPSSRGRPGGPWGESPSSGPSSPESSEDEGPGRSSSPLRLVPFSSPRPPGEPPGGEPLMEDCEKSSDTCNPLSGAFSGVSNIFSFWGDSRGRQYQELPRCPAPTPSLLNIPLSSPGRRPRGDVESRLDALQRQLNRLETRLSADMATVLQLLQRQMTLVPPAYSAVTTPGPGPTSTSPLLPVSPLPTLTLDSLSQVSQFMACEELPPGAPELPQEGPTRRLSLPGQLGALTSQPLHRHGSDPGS
T2 sequence (Q14524 whole entry): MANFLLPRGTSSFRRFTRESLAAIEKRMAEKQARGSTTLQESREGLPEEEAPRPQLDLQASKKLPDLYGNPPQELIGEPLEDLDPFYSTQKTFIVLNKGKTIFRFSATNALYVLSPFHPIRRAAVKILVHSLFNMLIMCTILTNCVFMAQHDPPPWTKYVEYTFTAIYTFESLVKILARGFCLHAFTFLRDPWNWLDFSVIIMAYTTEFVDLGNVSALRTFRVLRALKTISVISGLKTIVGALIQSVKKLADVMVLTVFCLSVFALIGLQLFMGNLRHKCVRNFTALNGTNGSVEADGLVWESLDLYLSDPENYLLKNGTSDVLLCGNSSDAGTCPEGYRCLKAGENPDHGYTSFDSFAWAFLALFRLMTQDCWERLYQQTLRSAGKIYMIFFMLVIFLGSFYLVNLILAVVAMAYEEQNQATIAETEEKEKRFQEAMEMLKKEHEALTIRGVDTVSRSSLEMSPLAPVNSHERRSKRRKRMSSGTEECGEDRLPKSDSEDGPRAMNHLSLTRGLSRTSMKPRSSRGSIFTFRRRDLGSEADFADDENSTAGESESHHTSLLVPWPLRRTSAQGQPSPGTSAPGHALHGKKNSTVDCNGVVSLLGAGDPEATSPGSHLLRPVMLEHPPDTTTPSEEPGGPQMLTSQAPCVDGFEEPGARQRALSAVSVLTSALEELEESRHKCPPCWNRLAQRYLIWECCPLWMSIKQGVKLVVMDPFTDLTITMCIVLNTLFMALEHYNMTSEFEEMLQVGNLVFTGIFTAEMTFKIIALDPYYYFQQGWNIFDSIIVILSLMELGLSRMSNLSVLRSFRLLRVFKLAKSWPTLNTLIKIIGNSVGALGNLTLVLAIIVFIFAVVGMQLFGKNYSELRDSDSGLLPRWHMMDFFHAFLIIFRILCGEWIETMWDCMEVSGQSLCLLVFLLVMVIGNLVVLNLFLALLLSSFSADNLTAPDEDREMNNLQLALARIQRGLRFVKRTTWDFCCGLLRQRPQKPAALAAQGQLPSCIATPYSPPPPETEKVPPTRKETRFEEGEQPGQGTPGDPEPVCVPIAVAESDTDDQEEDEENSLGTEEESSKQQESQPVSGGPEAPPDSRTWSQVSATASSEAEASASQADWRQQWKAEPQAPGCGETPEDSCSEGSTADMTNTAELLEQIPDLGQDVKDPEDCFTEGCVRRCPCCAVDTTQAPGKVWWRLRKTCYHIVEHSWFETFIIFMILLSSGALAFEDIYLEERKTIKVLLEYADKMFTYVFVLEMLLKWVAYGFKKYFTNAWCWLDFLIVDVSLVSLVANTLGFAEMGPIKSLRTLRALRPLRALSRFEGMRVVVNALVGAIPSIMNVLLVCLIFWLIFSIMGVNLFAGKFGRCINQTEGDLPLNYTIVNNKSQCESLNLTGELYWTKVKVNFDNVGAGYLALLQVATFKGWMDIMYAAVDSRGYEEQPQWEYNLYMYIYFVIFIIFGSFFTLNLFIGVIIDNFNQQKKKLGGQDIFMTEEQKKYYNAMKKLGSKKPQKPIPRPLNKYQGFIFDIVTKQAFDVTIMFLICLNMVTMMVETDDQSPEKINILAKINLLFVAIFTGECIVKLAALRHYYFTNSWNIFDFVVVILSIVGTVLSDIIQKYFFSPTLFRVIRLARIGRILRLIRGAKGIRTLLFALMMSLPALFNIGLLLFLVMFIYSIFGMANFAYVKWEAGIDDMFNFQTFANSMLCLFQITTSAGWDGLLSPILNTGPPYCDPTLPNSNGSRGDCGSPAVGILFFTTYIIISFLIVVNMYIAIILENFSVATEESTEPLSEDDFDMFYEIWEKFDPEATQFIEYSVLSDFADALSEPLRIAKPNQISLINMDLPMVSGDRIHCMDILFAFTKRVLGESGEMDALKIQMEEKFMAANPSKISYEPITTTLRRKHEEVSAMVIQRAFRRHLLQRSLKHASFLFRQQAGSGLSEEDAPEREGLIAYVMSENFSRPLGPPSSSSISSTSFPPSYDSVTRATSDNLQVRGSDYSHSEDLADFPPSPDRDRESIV
Sequence of CYP2D6 (P10635 whole entry): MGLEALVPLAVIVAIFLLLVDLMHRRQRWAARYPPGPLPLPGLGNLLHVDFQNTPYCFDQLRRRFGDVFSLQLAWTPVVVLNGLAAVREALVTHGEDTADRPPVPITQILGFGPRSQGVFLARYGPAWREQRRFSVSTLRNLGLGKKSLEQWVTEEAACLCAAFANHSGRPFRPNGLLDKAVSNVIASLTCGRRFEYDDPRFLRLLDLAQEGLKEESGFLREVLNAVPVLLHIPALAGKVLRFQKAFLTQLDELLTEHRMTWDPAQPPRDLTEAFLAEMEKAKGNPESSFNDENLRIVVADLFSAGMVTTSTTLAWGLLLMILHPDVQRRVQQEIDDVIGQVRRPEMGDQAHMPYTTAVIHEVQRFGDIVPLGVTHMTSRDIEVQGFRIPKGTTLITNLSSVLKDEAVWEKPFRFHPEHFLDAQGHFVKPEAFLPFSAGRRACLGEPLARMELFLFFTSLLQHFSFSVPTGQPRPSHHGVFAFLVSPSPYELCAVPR
Sequence of CYP3A4 (P08684 whole entry): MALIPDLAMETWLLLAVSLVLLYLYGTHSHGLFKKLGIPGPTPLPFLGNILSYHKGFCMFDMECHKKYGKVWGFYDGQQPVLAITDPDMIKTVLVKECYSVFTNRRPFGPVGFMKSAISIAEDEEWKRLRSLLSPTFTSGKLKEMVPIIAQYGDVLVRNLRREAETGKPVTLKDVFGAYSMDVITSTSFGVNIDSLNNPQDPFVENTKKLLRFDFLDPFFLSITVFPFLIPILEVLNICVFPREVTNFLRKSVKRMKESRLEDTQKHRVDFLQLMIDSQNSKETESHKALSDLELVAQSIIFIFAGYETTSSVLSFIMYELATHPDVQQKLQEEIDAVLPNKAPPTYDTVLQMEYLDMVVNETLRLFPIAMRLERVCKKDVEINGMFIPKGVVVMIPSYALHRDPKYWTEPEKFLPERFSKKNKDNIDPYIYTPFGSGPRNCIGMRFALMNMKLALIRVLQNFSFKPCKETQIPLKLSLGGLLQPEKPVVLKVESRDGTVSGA

For `CC(C)NC(=O)[C@H]1CC[C@@H](n2c(NC(=O)c3ccc(F)cc3)nc3ccc(CN4CCC(C(C)(C)O)CC4)cc32)CC1` [TSR-011], the IC50 (calcium channel) was greater than 10 µM, the “Reversibility of cardiovascular parameters” value ([1]; oral 3, 10 and 15 mg/kg) was “returned to normal by the subsequent dose” and the PR interval ([1]; oral doses of 3, 10 and 15 mg/kg) was “dose-dependent prolongation of the PR interval”. The Body temperature ([1]; oral, at 15 mg/kg) was “mild and transient increase in body temperature”, the QRS duration ([1]; oral, at 10 and 15 mg/kg) was “small and dose-dependent increase in QRS duration” and the Heart rate ([1]; oral, at ≥ 3 mg/kg) was “Increased heart rate”. For the same compound, the QTc ([1]; oral, at ≥ 3 mg/kg) was “prolonged QTc”, the Pulse pressure ([1]; oral, at ≥ 10 mg/kg) was “decreased pulse pressure” and the Partial response rate (ALK-positive tumours; ALK inhibitor-naive, RP2D) was 42.9%. The “Stable disease, patients” value (ALK-positive tumours; ALK inhibitor-naive, RP2D) was 57.1%, the Objective response rate (ALK-positive tumours; ALK pre-treated setting, RP2D) was 12.5% and the “Best overall response: Complete response” value (ALK-positive tumours; ALK inhibitor-naïve (n = 14)) was 0 n (%). For the same compound, the “Best overall response: Progressive disease” value (ALK-positive tumours; ALK inhibitor-naïve (n = 14)) was 0 n (%), the “Best overall response: Stable disease” value (ALK-positive tumours; ALK inhibitor-naïve (n = 14)) was 8 (57.1) n (%) and the “Objective response: Complete response + partial response” value (ALK-positive tumours; ALK inhibitor-naïve (n = 14)) was 6 (42.9) n (%). For the same compound, the “Best overall response: Partial response” value (ALK-positive tumours; ALK inhibitor-naïve (n = 14)) was 6 (42.9) n (%), the “Best overall response: Complete response” value (ALK-positive tumours; All patients (N = 22)) was 0 n (%) and the “Best overall response: Progressive disease” value (ALK-positive tumours; All patients (N = 22)) was 1 (4.5) n (%). The “Best overall response: Stable disease” value (ALK-positive tumours; All patients (N = 22)) was 14 (63.6) n (%), the “Objective response: Complete response + partial response” value (ALK-positive tumours; All patients (N = 22)) was 7 (31.8) n (%) and the “Best overall response: Partial response” value (ALK-positive tumours; All patients (N = 22)) was 7 (31.8) n (%). The “Best overall response: Complete response” value (ALK-positive tumours; [6]) was 0 n (%), the “Best overall response: Progressive disease” value (ALK-positive tumours; [6]) was 1 (12.5) n (%) and the “Best overall response: Stable disease” value (ALK-positive tumours; [6]) was 6 (75.0) n (%). For the same compound, the “Objective response: Complete response + partial response” value (ALK-positive tumours; [6]) was 1 (12.5) n (%), the “Best overall response: Partial response” value (ALK-positive tumours; [6]) was 1 (12.5) n (%) and the Complete response (ALK-positive tumours; [7]) was “No ALK-positive patient had a complete response”. For the same compound, the “Stable disease, number of patients” value (ALK-positive tumours; [7]) was 14, the “Partial response, number of patients” value (ALK-positive tumours; ALK-positive patients (n = 22), 40 mg Q8h, six confirmed, one unconfirmed) was “seven” and the “Response of a patient with neuroblastoma harbouring ALK mutation (R1275Q)” value (ALK-positive tumours; one patient) was “did not respond”. The Partial response rate (ALK-positive tumours; [8]) was 12.5%, the “Stable disease, patients” value (ALK-positive tumours; [8]) was 75.0% and the IC50 (CYP3A4) was 23.3 µM. The “Overall 24-h exposure” value ([2]; oral daily dosing of 60 mg/kg) was 15,500 ng×h/mL, the Plasma concentration ([2]; oral dose 60 mg/kg, at 8 h) was 698.00 nM and the IC50 (hERG [3]) was 2.3 µM. The IC50 (hERG [4]) was 0.172 µM, the IC50 (CYP2D6) was 32.9 µM and the “Mean ΔQTcF” value ([5]; 120 mg QD (n = 1)) was 19 ms. For the same compound, the “Upper bound of the two-sided 90% CI of mean ΔQTcF” value ([5]; 120 mg QD (n = 1)) was 27 ms, the “Frequency of drug-related QTc prolongation” value ([5]; 40-mg TID (Q8h) RP2D) was 9.7% and the “Patients with ΔQTc of > 60 ms and QTc > 500 ms (grade 3 event)” value ([5]; 40-mg TID (Q8h), one in 27 patients) was 3.7%. For the same compound, the “Mean ΔQTcF” value ([5]; 40-mg TID cohort (n = 27), 90% CI 9.75–12.00 ms) was 11 ms, the ΔQTcF ([5]; QD doses at 240 mg (n = 3), 320 mg (n = 3) and 480 mg (n = 4)) was greater than 20 ms and the “Slope of linear regression, plasma concentration versus ΔQTcF” value ([5]; all dose groups, 95% CI 0.01970–0.02747, P < 0.0001) was 0.02358. The “Mean ΔQTcF” value ([5]; fractionated BID (Q12h) and TID (Q8h) regimens, cumulative daily doses of 60 and 120 mg, all four regimens) was “below 20 ms”, the “Frequency of drug-related QTc prolongation” value ([5]; overall safety population) was 16.7% and the IC50 (hNav1.5) was 7.6 µM.
